According to patent US10682371B2, “Small molecule conjugates specifically activated in tumor microenvironment for targeting and use thereof” (priority 2014, dated 2020):
Like-named read-outs stand apart in the source and are kept apart here.

Columns and labels:
[1] = test system: Human breast cancer MDA-MB231 cells; format: in vivo, nude mice; settings: MDA-MB231, nude mice, IV 13.2 μmol/kg once weekly for four weeks
Method: (§1) 1) Human breast cancer MDA-MB231 cells were purchased from American type culture collection (ATCC) and identified according the specification provided by ATCC. Cells were cultivated in Dulbecco's minimum essential medium (DMEM culture medium) containing 10% fetal bovine serum at 37° C. and 5% CO2. The cells were passaged for every three days and cells within the 15th passage were used.
2) Production of tumor. 5×10^6 MDA-MB231 cells were subcutaneously injected to the back of the nude mice. Mice were randomly grouped after the tumor reached at least 100 mm^3. Then treatment began and the day on which the treatment began was day 1.
3) Course of treatment. […] The drugs were administered once weekly for four weeks.
When R1 is 2-(2-Methoxyethoxy)Acetyl, and R3 is Ala, activation study and efficacy study were carried out by using compounds having different cleavable linker. The study methods are identical to those in Examples 10, 11 and 12. The in vitro activation efficiency was tested by asparagine endopeptidase and the tumor inhibition rate was tested by using human breast cancer MDA-MB231 model. […]

D121 lung tumor cells = format: in vivo, C57 mice; settings: Day 18
Method: 1) D121 lung tumor cells were purchased from ATCC. Cells were cultivated in DMEM culture solution containing 10% fetal bovine serum at 37° C. and 5% CO2. The cells were passaged for every three days and cells within the 15th passage were used.
(§2) 2) Tumor immunization. 5×10^5 D121 lung cancer cells (purchased from ATCC) which were killed by irradiation were intraperitoneally injected to mice. The mice were injected for 3 times, once every two weeks. After immunization, mice were injected with tumor cells and the drugs were administered weekly for 4 weeks.
3) Production of tumor. At day 32, 10^6 live lung tumor cells were subcutaneously injected to the back of the C57 mice immunized by tumor. Treatment began when the tumor grew to 0.3-0.4 cm.
as §2, with “4 weeks. In table 16 below the immune group was immuned with D121 lung tumor cells and the group without dead D121 lung tumor cells was injected with physiological saline as controls.” for “4 weeks.”
3) Production of tumor. After immunization (4 weeks later), 10^6 live lung tumor cells were subcutaneously injected to the back of the C57 mice immunized by tumor. Treatment began when the tumor grew to 0.3-0.4 cm. Tumor size (mm^3) were noted and tumor inhibition rates were calculated.
as §2, with “4 weeks. In the table below the immune group was immuned with D121 lung tumor cells and the group without dead D121 lung tumor cells was injected with physiological saline as controls.” for “4 weeks.”
3) Production of tumor. At day 32, 10^6 live D121 lung tumor cells were subcutaneously injected to the back of the C57 mice immunized by tumor. Treatment began when the tumor grew to 0.3-0.4 cm.
1) D121 lung tumor cells were purposed from ATCC. Cells were cultivated in DMEM culture solution containing 10% fetal bovine serum at 37° C. and 5% CO2. The cells were passaged for every three days and cells within the 15th passage were used.

tumor CD8+ T cells = format: in vivo, C57 mice
Method: (§3) 4) Analysis on tumor CD8+ T cells. The tumor tissue was homogenated and individual cells in the tumor were filtered, separated and washed by buffer twice, then cultivated with the leucocyte common antigen CD45-PE and CD8-FITC marked antibodies for 1 hour at ambient temperature. The cells were washed by phosphate buffer containing 1% fetal bovine serum twice and then analyzed for the ratio of the T lymphocyte antigen (CD8) positive cells in the leucocyte common antigen (CD45) positive cells by flow cytometry.
as §3, with “CD45-PE and T-lymphocyte antigen CD8-FITC marked” for “CD45-PE and CD8-FITC marked”, “flow cytometry. Increasement of the ratio indicates increased T lymphocyte cells and thus the animal immunity against the tumor was improved.” for “flow cytometry.”
as §3, with “cytometry. Increasement of the ratio indicates increased T lymphocyte cells and thus the animal immunity against the tumor was improved.” for “cytometry.”

4T1 cells = test: BALB/C mice model for tumor metastasis (4T1, lung metastases); format: in vivo; settings: BALB/C mice, 4T1, lung metastases day 27, IV every three days for 4 times
Method: as §1, with “4T1” for “Human breast cancer MDA-MB231”, “DMEM” for “Dulbecco's minimum essential medium (DMEM”, “solution” for “medium)”
2) Production of tumor metastasis. 10^6 […] were subcutaneously injected to the back of the BALB/C mice. Mice were randomly grouped after the tumor grew to about 1.5 cm. The subcutaneous tumor was removed by surgery and drug treatment began. Mice were killed after anesthesia on day 27. The whole lung was taken out and put into Bouin's solution for staining. The number of the tumor metastasized to lung was counted with anatomical microscope.
(§4) The control group was administered by physiological saline. Drugs were administered once for every three days for 4 times.
as §4
According to the clinical application of B1, B2, B3 and B4, drugs were intravenously injected (IV). […] The control group was administered by physiological saline. Drugs were administered once for every three days for 4 times.
According to the clinical application of D1, D2, D3 and D4, drugs were intravenously injected (IV). […] The control group was administered by physiological saline. Drugs were administered once for every three days for 4 times.

[2] = test system: Human prostate cancer PC-3 cells / Panc-1 cells; test: Tumor treatment in nude mice (PC-3 cells purchased, Panc-1 cells injected; Examples 22, 32, 42); format: in vivo; settings: Table 38, nude mice, IV once weekly for four weeks, B1-B4 25 mg/kg, Docetaxel […]
Method: as §1, with “prostate” for “breast”, “PC-3” for “MDA-MB231”, “DMEM” for “Dulbecco's minimum essential medium (DMEM”, “solution” for “medium)”
2) Production of tumor. 5×10^6Panc-1 cells were subcutaneously injected to the back of the nude mice. Mice were randomly grouped after the tumor reached at least 100 mm^3. Then treatment began and the day on which the treatment began was day 1.
The control group was administered by physiological saline. Drugs were administered once weekly for four weeks.
According to the clinical application of B1, B2, B3 and B4, drugs were intravenously injected (IV). […] The control group was administered by physiological saline. Drugs were administered once weekly for four weeks.

[3] = test system: Human prostate cancer PC-3 cells; test: Tumor treatment in nude mice, PC-3 model (Example 51); format: in vivo; settings: Table 48, nude mice, PC-3, IV once weekly for four weeks, D1-D4 25 mg/kg, Docetaxel […]
Method: as §1, with “prostate” for “breast”, “PC-3” for “MDA-MB231”, “DMEM” for “Dulbecco's minimum essential medium (DMEM”, “solution” for “medium)”
2) Production of tumor. 5×10^6PC-3 cells were subcutaneously injected to the back of the nude mice. Mice were randomly grouped after the tumor reached at least 100 mm^3. Then treatment began and the day on which the treatment began was day 1.
According to the clinical application of D1, D2, D3 and D4, drugs were intravenously injected (IV). […]. The control group was administered by physiological saline. Drugs were administered once weekly for four weeks.

[4] = D121 immunized C57 mice, 13.2 μmol/kg weekly, PDL1 antibody 5 μg/kg where combined
[5] = D121 immunized C57 mice, 13.2 μmol/kg, ratio of CD8 positive cells in CD45 positive cells of tumor
[6] = Table 40, B1-B4 17.6 μmol/kg, Docetaxel 3 μmol/kg
[7] = Table 50, D1-D4 25 mg/kg, Docetaxel 4.2 mg/kg
[8] = Table 39, immunized C57 mice, D121, drugs 13.2 μmol/kg, PDL1-antibody 5 μg/kg, weekly for 4 weeks
[9] = Table 49, immunized C57 mice, D121, drugs 13.2 μmol/kg, PDL1 antibody 5 μg/kg, weekly for 4 weeks

Compound	Inhibitory rate on tumor (%) Day 10 [1] [%]	Size of tumor (mm^3) Day 10 [1] [mm^3]	Inhibitory rate on tumor (%) Day 24 [1] [%]	Size of tumor (mm^3) Day 24 [1] [mm^3]	Inhibitory rate on tumor Day 18 (D121 lung tumor cells; [4])	Size of tumor (mm^3) Day 18 (D121 lung tumor cells; [4]) [mm^3]	CD8: D45 (%) (tumor CD8+ T cells; [5])	further results
CCCCCOC(=O)Nc1nc(=O)n([C@@H]2O[C@H](C)[C@@H](O)[C@H]2O)cc1F [capecitabine]	26	225.53 ± 74.45	9	946.43 ± 275.86	29.75	953.65 ± 245.43	13.6	–
Docetaxel [reference compound]	–	–	–	–	–	–	–	Inhibitory rate on metastasis (4T1 cells; [6]): 32.5; Number of metastasized tumor (4T1 cells; [6]): 85 ± 17; Inhibitory rate on metastasis (4T1 cells; [7]): 89.7; Number of metastasized tumor (4T1 cells; [7]): 156 ± 24; Size of tumor (mm^3) Day 18 (D121 lung tumor cells; [8]): 1242.30 ± 359.48 mm^3; inhibitory rate on tumor % Day 18 (D121 lung tumor cells; [8]): 23.33%; Size of tumor (mm^3) Day 18 (D121 lung tumor cells; [9]): 1268.64 mm^3; inhibitory rate on tumor % Day 18 (D121 lung tumor cells; [9]): 11.0%; CD8: CD45 (%) (tumor CD8+ T cells; Table 39, CD8 positive cells in CD45 positive cells of tumor, flow cytometry, drugs 13.2 μmol/kg, PDL1-antibody 5 μg/kg): 5.4%; CD8: CD45 (%) (tumor CD8+ T cells; Table 49, CD8 positive cells in CD45 positive cells of tumor, flow cytometry, drugs 13.2 μmol/kg, PDL1 antibody 5 μg/kg): 6.9%; Size of tumor (mm^3) Day 10 ([2]; Day 10): 254.75 ± 146.55 mm^3; inhibitory rate on tumor Day 10 ([2]; Day 10): 11.1; Size of tumor (mm^3) Day 24 ([2]; Day 24): 263.65 ± 184.67 mm^3; inhibitory rate on tumor Day 24 ([2]; Day 24): 30.7; Size of tumor (mm^3) Day 10 ([3]; Day 10): 168.66 ± 79.43 mm^3; inhibitory rate on tumor Day 10 ([3]; Day 10): 51.3; Size of tumor (mm^3) Day 24 ([3]; Day 24): 313.75 ± 157.42 mm^3; inhibitory rate on tumor Day 24 ([3]; Day 24): 57.3
COc1cccc2c1C(=O)c1c(O)c3c(c(O)c1C2=O)C[C@@](O)(C(C)=O)C[C@@H]3O[C@H]1C[C@H](N)[C@H](O)[C@H](C)O1 [daunorubicin]	43	174.78 ± 78.43	17	864.01 ± 67.45	21.63	1063.86 ± 317.56	13.2	–
CC[C@@]1(O)C(=O)OCc2c1cc1n(c2=O)Cc2cc3ccccc3nc2-1 [camptothecin]	15	258.45 ± 57.43	19	847.46 ± 157.56	34.47	889.56 ± 148.56	–	CD8: CD45 (%) (tumor CD8+ T cells; [5]): 13.2%
